Source: publication doi:10.1101/2021.05.10.443505v2 (biorxiv, 2021)
pKd: −log10 of the molar value.

Target: T1, human ID2 protein (Homo sapiens, UniProt Q02363)
T1 sequence (Q02363 1-134): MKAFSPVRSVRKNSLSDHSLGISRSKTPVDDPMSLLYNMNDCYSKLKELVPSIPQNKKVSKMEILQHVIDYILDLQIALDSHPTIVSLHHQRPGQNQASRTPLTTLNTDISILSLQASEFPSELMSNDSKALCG
Test: SPR
Format: binding

For `O=C(CC1(O)C(=O)N(Cc2cccc(Cl)c2)c2ccccc21)c1ccccn1` (stereo not shown) [AK-778-XXMU], the pKd was 6.89.
